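Test compounds were applied to cells in 96-well plates for 48 hours at 5 doses. GI50 is the concentration that inhibits growth by half.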 The source made the active and inactive calls. Rule as the data show it: active = GI50 up to about 1.1 µM and inactive = higher.
Experiments:
Test in all cases: NCI tumour cell line growth inhibition, 48 h
[1] = test system: HOP-62
[2] = test system: Malme-3M
[3] = test system: UO-31
[4] = test system: KM12
[5] = test system: DU-145
[6] = test system: SNB-19
[7] = test system: SK-MEL-5
[8] = test system: TK-10
[9] = test system: NCI-H460
[10] = test system: SW-620
[11] = test system: T47D
[12] = test system: MCF7
[13] = test system: SF-268
[14] = test system: RXF 393
[15] = test system: BT-549
[16] = test system: SN12C
[17] = test system: SK-OV-3
[18] = test system: PC-3
[19] = test system: MDA-MB-435
[20] = test system: COLO 205
[21] = test system: OVCAR-4
[22] = test system: MOLT-4
[23] = test system: LOX IMVI
[24] = test system: UACC-257
[25] = test system: NCI-H522
[26] = test system: HCT-15
[27] = test system: NCI/ADR-RES
[28] = test system: IGROV-1
[29] = test system: OVCAR-5
[30] = test system: CAKI-1
[31] = test system: SNB-75
[32] = test system: OVCAR-8
[33] = test system: SF-539
[34] = test system: HCT-116
[35] = test system: HL-60
[36] = test system: OVCAR-3
[37] = test system: ACHN
[38] = test system: HOP-92
[39] = test system: MDA-N
[40] = test system: A549
[41] = test system: SF-295
[42] = test system: SR
[43] = test system: CCRF-CEM
[44] = test system: U-251
[45] = test system: SK-MEL-28
[46] = test system: RPMI-8226
[47] = test system: EKVX
[48] = test system: HT-29
[49] = test system: 786-0
[50] = test system: M14
[51] = test system: MDA-MB-231
[52] = test system: K562
[53] = test system: NCI-H226
[54] = test system: SK-MEL-2
[55] = test system: A498
[56] = test system: Hs-578T
[57] = test system: UACC-62
[58] = test system: HCC 2998
[59] = test system: NCI-H23

SMILES: O=C1NC(=O)C(c2c[nH]c3cc(Br)ccc23)=C1c1cnc[nH]1
- GI50 [1]: 19.1 µM (inactive)
- GI50 [2]: > 100 µM (inactive)
- GI50 [3]: 17.7 µM (inactive)
- GI50 [4]: 21.1 µM (inactive)
- GI50 [5]: 60.5 µM (inactive)
- GI50 [6]: > 100 µM (inactive)
- GI50 [7]: 11 µM (inactive)
- GI50 [8]: 34.9 µM (inactive)
- GI50 [9]: 24 µM (inactive)
- GI50 [10]: 55.8 µM (inactive)
- GI50 [11]: 48.8 µM (inactive)
- GI50 [12]: 21.7 µM (inactive)
- GI50 [13]: 29.5 µM (inactive)
- GI50 [14]: 39 µM (inactive)
- GI50 [15]: 13.5 µM (inactive)
- GI50 [16]: 53.3 µM (inactive)
- GI50 [17]: 13.1 µM (inactive)
- GI50 [18]: 24.7 µM (inactive)
- GI50 [19]: 25.1 µM (inactive)
- GI50 [20]: 15.6 µM (inactive)
- GI50 [21]: 32.1 µM (inactive)
- GI50 [22]: 23.9 µM (inactive)
- GI50 [23]: 19.5 µM (inactive)
- GI50 [24]: 16 µM (inactive)
- GI50 [25]: 31.8 µM (inactive)
- GI50 [26]: 54.5 µM
- GI50 [27]: > 100 µM (inactive)
- GI50 [28]: 28.4 µM (inactive)
- GI50 [29]: > 100 µM (inactive)
- GI50 [30]: 13.2 µM (inactive)
- GI50 [31]: > 100 µM (inactive)
- GI50 [32]: 65.2 µM (inactive)
- GI50 [33]: 21.9 µM (inactive)
- GI50 [34]: 25.8 µM (inactive)
- GI50 [35]: 20.4 µM (inactive)
- GI50 [36]: 12.3 µM (inactive)
- GI50 [37]: 43.7 µM (inactive)
- GI50 [38]: > 100 µM (inactive)
- GI50 [39]: 35.5 µM (inactive)
- GI50 [40]: 53.1 µM (inactive)
- GI50 [41]: 16.3 µM (inactive)
- GI50 [42]: 31.3 µM (inactive)
- GI50 [43]: 34.8 µM (inactive)
- GI50 [44]: 32.5 µM (inactive)
- GI50 [45]: 62.1 µM (inactive)
- GI50 [46]: 30.8 µM (inactive)
- GI50 [47]: 23.4 µM (inactive)
- GI50 [48]: 26.2 µM (inactive)
- GI50 [49]: 50 µM (inactive)
- GI50 [50]: 51.6 µM (inactive)
- GI50 [51]: 27.9 µM (inactive)
- GI50 [52]: 25.6 µM (inactive)
- GI50 [53]: 1.47 µM (inactive)
- GI50 [54]: 22.9 µM (inactive)
- GI50 [55]: 14.5 µM (inactive)
- GI50 [56]: 52.7 µM (inactive)

SMILES: CC1(C)CC23CC(C)(C)c4cccc(c42)OCc2ccc4ccc5ccc(nc5c4n2)COc2cccc1c23
- GI50 [1]: > 50 µM (inactive)
- GI50 [3]: > 50 µM (inactive)
- GI50 [4]: > 50 µM (inactive)
- GI50 [5]: > 50 µM (inactive)
- GI50 [6]: > 5 µM (inactive)
- GI50 [7]: > 50 µM (inactive)
- GI50 [8]: > 50 µM (inactive)
- GI50 [9]: > 50 µM (inactive)
- GI50 [10]: > 50 µM (inactive)
- GI50 [11]: > 50 µM (inactive)
- GI50 [12]: > 50 µM (inactive)
- GI50 [13]: > 50 µM (inactive)
- GI50 [15]: > 50 µM (inactive)
- GI50 [16]: > 50 µM (inactive)
- GI50 [17]: > 50 µM (inactive)
- GI50 [18]: > 50 µM (inactive)
- GI50 [19]: > 50 µM (inactive)
- GI50 [20]: > 50 µM (inactive)
- GI50 [21]: > 50 µM (inactive)
- GI50 [22]: > 50 µM (inactive)
- GI50 [23]: > 50 µM (inactive)
- GI50 [24]: > 50 µM (inactive)
- GI50 [25]: > 50 µM (inactive)
- GI50 [26]: > 50 µM
- GI50 [57]: > 50 µM (inactive)
- GI50 [27]: > 50 µM (inactive)
- GI50 [28]: > 50 µM (inactive)
- GI50 [29]: > 50 µM (inactive)
- GI50 [30]: > 50 µM (inactive)
- GI50 [31]: > 50 µM (inactive)
- GI50 [32]: > 50 µM (inactive)
- GI50 [33]: > 50 µM (inactive)
- GI50 [34]: > 50 µM (inactive)
- GI50 [35]: > 50 µM (inactive)
- GI50 [36]: > 50 µM (inactive)
- GI50 [58]: > 50 µM (inactive)
- GI50 [37]: > 50 µM (inactive)
- GI50 [38]: > 50 µM (inactive)
- GI50 [39]: > 50 µM (inactive)
- GI50 [40]: > 50 µM (inactive)
- GI50 [41]: > 50 µM (inactive)
- GI50 [42]: > 50 µM (inactive)
- GI50 [44]: > 50 µM (inactive)
- GI50 [45]: > 50 µM (inactive)
- GI50 [46]: > 50 µM (inactive)
- GI50 [47]: > 50 µM (inactive)
- GI50 [48]: > 50 µM (inactive)
- GI50 [49]: > 50 µM (inactive)
- GI50 [50]: > 50 µM (inactive)
- GI50 [51]: > 50 µM (inactive)
- GI50 [52]: > 50 µM (inactive)
- GI50 [53]: > 50 µM (inactive)
- GI50 [54]: > 50 µM (inactive)
- GI50 [55]: > 50 µM (inactive)
- GI50 [56]: > 50 µM (inactive)

SMILES: c1ccc2c(c1)nc1n2CCSC1
- GI50 [1]: > 100 µM (inactive)
- GI50 [3]: > 100 µM (inactive)
- GI50 [4]: > 100 µM (inactive)
- GI50 [5]: > 100 µM (inactive)
- GI50 [6]: > 100 µM (inactive)
- GI50 [7]: > 100 µM (inactive)
- GI50 [8]: > 100 µM (inactive)
- GI50 [9]: > 100 µM (inactive)
- GI50 [10]: > 100 µM (inactive)
- GI50 [11]: > 100 µM (inactive)
- GI50 [12]: > 100 µM (inactive)
- GI50 [13]: > 100 µM (inactive)
- GI50 [14]: > 100 µM (inactive)
- GI50 [59]: > 100 µM (inactive)
- GI50 [15]: > 100 µM (inactive)
- GI50 [16]: > 100 µM (inactive)
- GI50 [17]: > 100 µM (inactive)
- GI50 [18]: > 100 µM (inactive)
- GI50 [19]: > 100 µM (inactive)
- GI50 [20]: > 100 µM (inactive)
- GI50 [21]: > 100 µM (inactive)
- GI50 [22]: > 100 µM (inactive)
- GI50 [23]: > 100 µM (inactive)
- GI50 [24]: > 100 µM (inactive)
- GI50 [26]: > 100 µM
- GI50 [57]: > 100 µM (inactive)
- GI50 [27]: > 100 µM (inactive)
- GI50 [28]: 74.8 µM (inactive)
- GI50 [29]: > 100 µM (inactive)
- GI50 [30]: > 100 µM (inactive)
- GI50 [31]: > 100 µM (inactive)
- GI50 [33]: > 100 µM (inactive)
- GI50 [34]: > 100 µM (inactive)
- GI50 [35]: > 100 µM (inactive)
- GI50 [36]: > 100 µM (inactive)
- GI50 [58]: > 100 µM (inactive)
- GI50 [37]: > 100 µM (inactive)
- GI50 [38]: > 100 µM (inactive)
- GI50 [39]: > 100 µM (inactive)
- GI50 [40]: > 100 µM (inactive)
- GI50 [41]: > 100 µM (inactive)
- GI50 [42]: > 100 µM (inactive)
- GI50 [43]: > 100 µM (inactive)
- GI50 [44]: > 100 µM (inactive)
- GI50 [45]: > 100 µM (inactive)
- GI50 [46]: > 100 µM (inactive)
- GI50 [47]: > 100 µM (inactive)
- GI50 [48]: > 100 µM (inactive)
- GI50 [49]: > 100 µM (inactive)
- GI50 [50]: > 100 µM (inactive)
- GI50 [51]: > 100 µM (inactive)
- GI50 [52]: > 100 µM (inactive)
- GI50 [54]: > 100 µM (inactive)
- GI50 [55]: > 100 µM (inactive)
- GI50 [56]: > 100 µM (inactive)
